Source: PubChem BioAssay (NCI)
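Briefly, cells in 96-well plates were exposed to five compound concentrations for 48 h, and endpoints were estimated by linear interpolation. GI50 marks 50% less growth. TGI marks complete inhibition of growth.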

Legend:
Assay in all cases: inhibition of tumour cell growth, NCI panel, 48 h
A498 renal = system: A498 renal
A549 NSCLC = system: A549 NSCLC
KM12 colon = system: KM12 colon
OVCAR-5 ovarian = system: OVCAR-5 ovarian
UACC-257 melanoma = system: UACC-257 melanoma
UACC-62 melanoma = system: UACC-62 melanoma
HOP-62 NSCLC = system: HOP-62 NSCLC
NCI-H522 lung = system: NCI-H522 lung
SF-539 CNS = system: SF-539 CNS
MCF7 breast = system: MCF7 breast

Row | Structure (SMILES) | TGI (A498 renal) | TGI (A549 NSCLC) | TGI (KM12 colon) | TGI (OVCAR-5 ovarian) | TGI (UACC-257 melanoma) | TGI (UACC-62 melanoma) | TGI (HOP-62 NSCLC) | TGI (NCI-H522 lung) | TGI (SF-539 CNS) | GI50 (A549 NSCLC) | GI50 (HOP-62 NSCLC) | GI50 (KM12 colon) | GI50 (MCF7 breast) | TGI (MCF7 breast) | GI50 (NCI-H522 lung) | GI50 (OVCAR-5 ovarian) | GI50 (SF-539 CNS) | GI50 (UACC-257 melanoma) | GI50 (UACC-62 melanoma) | GI50 (A498 renal)
1 | CCC1CN2CCc3cc(OC)c(OC)cc3C2CC1CC1c2cc(OC)c(OC)cc2CCN1C(=O)CNC(=O)OC(C)(C)C (centres undefined) | 56.2 µM | 62.6 µM | 11.4 µM | 77.3 µM | 60 µM | 56.4 µM |  |  |  |  |  |  |  |  |  |  |  |  |  | 
2 | O=C(O)CCC1CCc2cccc3occ1c23 (centres undefined) | > 100 µM | > 100 µM | > 100 µM | > 100 µM | > 100 µM | > 100 µM | > 100 µM | > 100 µM | > 100 µM |  |  |  |  |  |  |  |  |  |  | 
3 | C/C=C(/CCCCNCCCC)[Si](C)(C)C | 29.4 µM | 30.3 µM | 30.6 µM | 27.6 µM | 30.3 µM | 32.7 µM |  | 25.3 µM | 28.4 µM |  |  |  |  |  |  |  |  |  |  | 
4 | COc1cc(Oc2c(O)c(C)c(OC)c(C(C)=O)c2O)c(C(C)=O)c(O)c1C |  | > 100 µM | > 100 µM | > 100 µM | > 100 µM | > 100 µM | 83.1 µM | 77.9 µM | > 100 µM |  |  |  |  |  |  |  |  |  |  | 
5 | FC(F)(F)c1ccc2nc(Nc3ccc(Cl)c(Cl)c3)c(-c3ccccc3)nc2c1 |  | > 100 µM |  | > 100 µM | > 100 µM |  | > 100 µM |  | > 100 µM |  |  |  |  |  |  |  |  |  |  | 
6 | C=C(N=[N+]=[N-])c1cn(C2CC(O)C(CO)O2)c(=O)[nH]c1=O (centres undefined) |  | > 100 µM | > 100 µM | > 100 µM |  | > 100 µM | > 100 µM | > 100 µM | > 100 µM |  |  |  |  |  |  |  |  |  |  | 
7 | O=c1[nH]cc(OCC(F)(F)F)c(=O)[nH]1 | > 100 µM | > 100 µM | > 100 µM | > 100 µM | > 100 µM | > 100 µM | > 100 µM | > 100 µM | > 100 µM |  |  |  |  |  |  |  |  |  |  | 
8 | CC(C)=CC(=O)CC(=O)C(=O)Nc1ccc(Cl)c(Cl)c1 | > 100 µM | > 100 µM | > 100 µM | > 100 µM | > 100 µM | > 100 µM | > 100 µM | > 100 µM | > 100 µM |  |  |  |  |  |  |  |  |  |  | 
9 | Cc1c2ccncc2c(C)c2c1[nH]c1ccc(OC(C)(C)C)cc12 | 26.2 µM | 13.1 µM |  | 54.9 µM | 4.01 µM | 5.43 µM | 9.74 µM | 5.81 µM | 2.93 µM |  |  |  |  |  |  |  |  |  |  | 
10 | Cc1cccc(C(C)(C)C)c1NC(=O)C(=O)C(c1cnc2ccccc2n1)[N+](=O)[O-] (centres undefined) | > 100 µM | > 100 µM | > 100 µM | > 100 µM | > 100 µM | > 100 µM | > 100 µM | > 100 µM | > 100 µM |  |  |  |  |  |  |  |  |  |  | 
11 | O=C(Nc1cc(Cl)c(Cl)cc1Cl)C(=O)C(C(=O)c1ccc(Cl)c(Cl)c1)C1OC(=O)c2ccccc21 (centres undefined) | 41.9 µM | > 100 µM | 33.6 µM | 23.6 µM | 27.5 µM | 33.5 µM | 25.3 µM | 23.3 µM | 7.89 µM |  |  |  |  |  |  |  |  |  |  | 
12 | O=C1CC2C(=O)N(Cc3ccccc3)C1C(S(=O)(=O)c1ccccc1)C2S(=O)(=O)c1ccccc1 (centres undefined) | 32.2 µM | 33.2 µM | 29.7 µM | 31.9 µM | 3.25 µM | 5.22 µM | 36.9 µM | 1.38 µM | 4.18 µM |  |  |  |  |  |  |  |  |  |  | 
13 | CN(C)C(=O)C1CCC(=C2C(=O)OC(C)(C)OC2=O)N1C (centres undefined) | > 100 µM | > 100 µM | > 100 µM | > 100 µM | > 100 µM | > 100 µM | > 100 µM | > 100 µM | > 100 µM |  |  |  |  |  |  |  |  |  |  | 
14 | CCOC(=O)/C(C#N)=C1\N[C@H](C(=O)OCC)CO1 |  | > 100 µM | > 100 µM | > 100 µM | > 100 µM | > 100 µM | > 100 µM | > 100 µM | > 100 µM |  |  |  |  |  |  |  |  |  |  | 
15 | COc1ccc(COCC(Cn2ccnc2)OCc2ccc(C(=O)O)cc2)cc1 (centres undefined) | > 100 µM | > 100 µM | > 100 µM | > 100 µM | > 100 µM | > 100 µM | > 100 µM | > 100 µM | > 100 µM |  |  |  |  |  |  |  |  |  |  | 
16 | COC(=O)[C@]1(C)CCC[C@@]2(C)C1CCC1=C[C@@]3(C(C)C)CC[C@]12OO3 (some centres undefined) | 67 µM | > 100 µM | 66.5 µM | 84.9 µM | > 100 µM | 72.3 µM | > 100 µM | 35.4 µM | 47.5 µM |  |  |  |  |  |  |  |  |  |  | 
17 | COc1ccc(-c2ccc(/C=N/n3c(COc4ccc(Cl)cc4)n[nH]c3=S)o2)c([N+](=O)[O-])c1 |  | 44.1 µM | 41.3 µM | 51.4 µM | 51.4 µM | 51.7 µM | 40.4 µM | > 100 µM | 42.2 µM | 11.6 µM | 22.6 µM | 8.12 µM | 16.9 µM | 56.9 µM | 25.7 µM | 24.7 µM | 18.6 µM | 15.9 µM | 17.8 µM | 
18 | CC1CC2(CC[C@@H]1O)OCCO2 (some centres undefined) | > 100 µM | > 100 µM | > 100 µM |  | > 100 µM | > 100 µM | > 100 µM | > 100 µM | > 100 µM |  |  |  |  |  |  |  |  |  |  | 
19 | CC(=O)C1=C([O-])C(C)OC1=O.CC(=O)C1=C([O-])C(C)OC1=O.[NH-]C1CCCC[C@H]1[NH-].[Pt+4] (centres undefined) | > 100 µM | > 100 µM | > 100 µM |  | > 100 µM | > 100 µM | > 100 µM | > 100 µM |  | 88.1 µM | > 100 µM | > 100 µM |  |  | 27.5 µM |  |  | > 100 µM | 42.3 µM | 15.8 µM
20 | C/C1=C\CC[C@@](C)(O)[C@@H]2CC3[C@@H](OC(=O)C34CC4)[C@@H](O2)[C@H](C)CCC1 (some centres undefined) |  | 77.6 µM | 62.2 µM | 30.2 µM | 44.1 µM | 56.4 µM |  | 28.5 µM |  | 24.5 µM |  | 21.6 µM | 0.238 µM | 25.3 µM | 12.7 µM | 16.1 µM |  | 20.4 µM | 21.3 µM | 
21 | COC(=O)C(=O)C(C(=O)C=C(C)C)C(=O)C(=O)Nc1cccc(C(C)=O)c1 (centres undefined) | > 100 µM | > 100 µM | > 100 µM | > 100 µM | > 100 µM | > 100 µM | > 100 µM | > 100 µM | > 100 µM |  |  |  |  |  |  |  |  |  |  | 
